Test results as given in ChEMBL document CHEMBL5620351, “Advancing beyond reverse transcriptase inhibitors: The new era of hepatitis B polymerase inhibitors” (Eur J Med Chem, 2023).
One block for each molecule: values may come before it.

What was measured:
Hepatitis B virus [1] = test: Antiviral activity against HBV infected in human HepDES19 cells assessed as reduction in HBV replication; type: functional, organism-based
Hepatitis B virus [2] = test: Antiviral activity against HBV infected in human HepDES19 cells assessed as inhibition of HBV replication by qPCR analysis; type: functional, organism-based
Hepatitis B virus [3] = test: Antiviral activity against HBV infected in human HePAD38 cells assessed as reduction in HBV replication by qPCR analysis; type: functional, organism-based
[4] = Cytotoxicity against human HepAD38 cells assessed as reduction in cell viability incubated for 4 days by XTT assay; type: functional; details: HePAD38, 96 h, time 4 day
HepG2 = test: Cytotoxicity against human HepG2 cells assessed as cell viability incubated for 12 days by WST-1 assay; type: functional; details: HepG2, 288 h, time 12 day
[5] = Inhibition of HBV RNA polymerase; design: species or system Hepatitis B virus
Hepatitis B virus [6] = test: Antiviral activity against HBV transfected in human HB611 cells assessed as reduction of HBV DNA replication incubated for 5 days by q-PCR analysis; type: functional, organism-based; details: HB611, 120 h
Hepatitis B virus [7] = test: Antiviral activity against HBV transfected in human HB611 cells; type: functional, organism-based
[8] = Cytotoxicity against human HB611 cells assessed as reduction in cell viability incubated for 6 to 9 days by celltiter-glo assay; type: functional; details: time 6-9 day
Hepatitis B virus [9] = test: Antiviral activity against HBV infected in human HepG2.2.15.7 cells assessed as reduction in HBV DNA replication by TR-PCR analysis; type: functional, organism-based
Hepatitis B virus [10] = test: Antiviral activity against wild type HBV infected in human HepG2 cells assessed as reduction in HBV DNA replication by RT-PCR analysis; type: functional, organism-based
Hepatitis B virus [11] = test: Antiviral activity against lamivudine-resistant HBV infected in human HepG2 cells assessed as reduction in HBV DNA replication by RT-PCR analysis; type: functional, organism-based
Hepatitis B virus [12] = test: Antiviral activity against HBV infected in human HepG2-NTCP12 cells assessed as inhibition of extracellular HBV DNA incubated for 2 weeks by SYBR green dye based quantitative PCR analysis; type: functional, organism-based; details: HepG2-NTCP12, 336 h
[13] = Cytotoxicity against human primary hepatocytes assessed as cell viability incubated for 72 hrs by MTS assay; type: toxicity, cell-based, Hepatocyte
[14] = Cytotoxicity against human primary hepatocytes assessed as cell viability incubated for 72 hrs by LDH release assay; type: toxicity, cell-based, Hepatocyte
Hepatitis B virus [15] = test: Antiviral activity against HBV D1 infected in human HepG2.2.15 cells assessed as reduction in HBV DNA production by real-time qPCR analysis; type: functional, organism-based; details: D1, HepG2.2.15
Hepatitis B virus [16] = test: Antiviral activity against HBV C2 infected in human Huh-7 cells assessed as reduction in HBV DNA production by real-time qPCR analysis; type: functional, organism-based; details: C2, Huh-7
Hepatitis B virus [17] = test: Antiviral activity against entecavir-resistant HBV infected in human Huh-7 cells assessed as reduction in HBV DNA production by real-time qPCR analysis; type: functional, organism-based
Hepatitis B virus [18] = test: Antiviral activity against adefovir-resistant HBV infected in human Huh-7 cells assessed as reduction in HBV DNA production by real-time qPCR analysis; type: functional, organism-based
Huh-7 = test: Cytotoxicity against human Huh-7 cells assessed as reduction in cell viability by MTT assay; type: functional
Hepatitis B virus [19] = test: Antiviral activity against HBV infected in human HepG2 2.2.15 cells assessed as reduction on HBsAg level incubated for 5 days; type: functional; design: concentration or dose not given beside the values; details: time 5 day
Hepatitis B virus [20] = test: Antiviral activity against HBV infected in human HepDES19 cells assessed as inhibition of extracellular HBV DNA by qPCR analysis; type: functional, organism-based
[21] = Cytotoxicity against human HepDES19 cells assessed as reduction in cell viability incubated for 1 hr by MTS assay; type: functional
[22] = Cytotoxicity against human HEK293 cells assessed as reduction in cell viability incubated for 1 hr by MTS assay; type: toxicity, cell-based
[23] = Cytotoxicity against human LX2 cells assessed as reduction in cell viability incubated for 1 hr by MTS assay; type: toxicity, cell-based; details: LX-2 cells

SMILES: O=C(NCc1ccc(F)cc1)C1C(=O)N(O)C(=O)c2ccc(O)nc21 (stereo not given)
- EC50 (Hepatitis B virus [1]): 2400 nM

SMILES: COc1ccc(-c2cccc(Nc3cc(=O)n(O)c(=O)[nH]3)c2)cc1
- IC50 (Hepatitis B virus [3]): 8000 nM
- CC50 [4]: > 100000 nM

SMILES: CCNC(=O)C1C(=O)N(O)C(=O)c2ccc(OC)nc21 (stereo not given)
- EC50 (Hepatitis B virus [1]): 2400 nM

SMILES: O=C(/C=C/c1ccc(O)c(O)c1)OCCc1ccc(O)c(O)c1
- CC50 (HepG2): 229000 nM

SMILES: CCCCCCCC/C=C\CCCCCCCC(=O)NCCc1ccc(O)c(O)c1 [OLEOYL DOPAMINE]
- IC50 [5]: 410 nM
- IC50 (Hepatitis B virus [6]): 100 nM
- EC50 (Hepatitis B virus [7]): 130 nM
- CC50 [8]: 900 nM

SMILES: Clc1ccc(/C=C/c2cc(Cl)cc(Cl)c2)cc1
- EC50 (Hepatitis B virus [9]): 14400 nM
- EC50 (Hepatitis B virus [10]): 13300 nM
- EC50 (Hepatitis B virus [11]): 16400 nM

SMILES: O=C(Nc1ccccc1)C1C(=O)N(O)C(=O)c2ccccc21 (stereo not given)
- EC50 (Hepatitis B virus [2]): 690 nM

SMILES: O=C(NCc1ccc(F)cc1)C1C(=O)N(O)C(=O)c2cc(Cl)ccc21 (stereo not given)
- EC50 (Hepatitis B virus [2]): 690 nM

SMILES: COc1ccc(CNC(=O)C2C(=O)N(O)C(=O)c3ccccc32)cc1 (stereo not given)
- EC50 (Hepatitis B virus [2]): 690 nM

SMILES: N#C[C@]1(CO)/C(=C\F)[C@@H](n2cnc3c(=O)[nH]c(N)nc32)C[C@@H]1O
- IC50 (Hepatitis B virus [15]): 1800 nM
- IC50 (Hepatitis B virus [16]): 700 nM
- IC50 (Hepatitis B virus [17]): 77500 nM
- IC50 (Hepatitis B virus [18]): 14100 nM
- CC50 (Huh-7): 169000 nM

SMILES: Cc1ccc(CNC(=O)C2C(=O)N(O)C(=O)c3cc(NC(=O)c4ccccc4)ccc32)cc1 (stereo not given)
- EC50 (Hepatitis B virus [2]): 690 nM

SMILES: CCCCCCCCCCCC1=C(O)C(=O)C=C(O)C1=O [EMBELIN]
- Activity (Hepatitis B virus [19]): 62%

SMILES: CCN(CC)C(=O)C1C(=O)N(O)C(=O)c2ccccc21 (stereo not given)
- EC50 (Hepatitis B virus [2]): 690 nM

SMILES: N#C/C=C1/C=C[C@@H](O)C[C@H]1O[C@@H]1O[C@H](CO)[C@@H](O)[C@H](O)[C@H]1O
- Activity (Hepatitis B virus [19]): 62%

SMILES: NC(=O)C(Cc1ccc(O)c(O)c1)OC(=O)/C=C/c1ccc(O)c(O)c1 (stereo not given)
- CC50 (HepG2): 229000 nM

SMILES: COc1ccc2c(c1)C(=O)N(O)C(=O)C2C(=O)NCc1ccc(F)cc1 (stereo not given)
- EC50 (Hepatitis B virus [2]): 690 nM

SMILES: CC(=O)O[C@H]1C(=O)[C@@]2(C)[C@H]([C@H](OC(=O)c3ccccc3)[C@]3(O)C[C@H](O)C(C)=C1C3(C)C)[C@]1(OC(C)=O)CO[C@@H]1C[C@@H]2O [BACCATIN III]
- Activity (Hepatitis B virus [19]): 62%

Further lines, with some results ahead:

- EC50 (Hepatitis B virus [2]): 690 nM
- EC50 (Hepatitis B virus [1]): 110 nM
SMILES: C/C(=N\c1ccccc1N)c1c(C)cc(=O)n(O)c1O

- EC50 (Hepatitis B virus [12]): 49 nM
SMILES: C/C(=N\OCc1ccc(F)cc1)c1c(C)cc(=O)n(O)c1O
- CC50 at 72 h [13]: > 100000 nM
- CC50 at 72 h [14]: > 100000 nM

- EC50 (Hepatitis B virus [1]): 110 nM
SMILES: CC(=NOCc1ccccc1)c1c(C)cc(=O)n(O)c1O

- EC50 (Hepatitis B virus [1]): 110 nM
SMILES: CC(=NOCc1ccccc1F)c1c(C)cc(=O)n(O)c1O

- EC50 (Hepatitis B virus [1]): 110 nM
SMILES: CC(=NOc1ccccc1)c1c(C)cc(=O)n(O)c1O

- EC50 (Hepatitis B virus [1]): 110 nM
SMILES: CC(=NOCc1ccc(F)cc1)c1c(C)cc(=O)n(O)c1O

- EC50 (Hepatitis B virus [1]): 110 nM
SMILES: CC(=NOCc1ccc(C)cc1)c1c(C)cc(=O)n(O)c1O

- EC50 (Hepatitis B virus [20]): 600 nM
SMILES: O=C1OCc2cc(O)c(=O)c(O)cc21
- CC50 [21]: > 100000 nM
- CC50 at 1 h [22]: > 100000 nM
- CC50 at 1 h [23]: > 100000 nM

- EC50 (Hepatitis B virus [12]): 49 nM
SMILES: CC(=O)c1cc(O)c(=O)c(O)cc1C
- CC50 at 72 h [13]: > 100000 nM
- CC50 at 72 h [14]: > 100000 nM

- EC50 (Hepatitis B virus [1]): 110 nM
SMILES: CC(=NOCc1ccccc1N)c1c(C)cc(=O)n(O)c1O
